Results as given in patent publication US20110034692A1 (ZENTIVA, K.S., priority 2008, published 2011).
Like-named read-outs stand apart in the source and are kept apart here.

Columns and labels:
[1] = Light exposure of methanolic montelukast solution to sunshine under inert argon, (Z)-isomer content by HPLC; assay type: physicochemical; settings: methanol solution, argon atmosphere
[2] = Stress test: methanolic solution of montelukast exposed to sunshine and air oxygen, HPLC monitoring; assay type: physicochemical
Protocol: The solution in glass apparatus was exposed to the influence of sunshine and air oxygen and samples were take repeatedly (at the times of 40 minutes, 1 day, 4 days and 14 days) (20 μl of the mixture further diluted by methanol to the volume of 1 ml) for HPLC analysis in the isocratic mode.
HPLC chromatograms were measured with the EliteLachrom device of Hitachi. For the analyses a column filled with the stationary phase of RP-18e was used, column temperature 20° C. As the mobile phase a mixture of acetonitrile (80%) and a 0.1 M aqueous solution of ammonium formate, treated with formic acid to pH 3.6 (20%), was used. The measurements were performed in the isocratic mode with the mobile phase flow rate of 1.5 ml/min. Spectrophotometric detection at the wavelength of 234 nm was used. For the preparation of the samples to be analyzed methanol was used as the solvent, 10-20 μl of the prepared solution were used for the injection.

[3] = for content of (Z)-montelukast in isolated montelukast: after 3 hours reflux in toluene, precipitation with heptane

Row | Compound | content of the (Z)-isomer according to HPLC after exposure to sunshine ([1]; sunshine 1.5 hours (Example 7)) | content of the (Z)-isomer according to HPLC after exposure to sunshine ([1]; sunshine 1.5 hours (Example 7), listed as Montelukast) | content of the (Z)-isomer according to HPLC after exposure to sunshine ([1]; sunshine 4 days (Example 9)) | rate of transformation of montelukast to (Z)-montelukast sulfoxide (XII) ([2]; light and oxygen induced degradation) | rate of transformation of montelukast (I) to (Z)-montelukast (V) ([2]; methanolic solution, sunshine and air oxygen) | sensitivity of the substance to light and air oxygen ([2]; methanolic solution, sunshine and air oxygen, HPLC isocratic) | content of (Z)-montelukast in isolated montelukast [3] | content of (Z)-montelukast in isolated montelukast ([3]; listed as (Z)-isomer) | content of (Z)-montelukast, initial mixture of isomers ([3]; before reflux, toluene solution) | content of (Z)-montelukast after 30 minutes of reflux ([3]; toluene, without light) | content of (Z)-montelukast after 60 minutes of reflux ([3]; toluene, without light)
1 | CC(C)(O)c1ccccc1CC[C@@H](SCC1(CC(=O)[O-])CC1)c1cccc(/C=C/c2ccc3ccc(Cl)cc3n2)c1.[Na+] [montelukast, sodium salt of [R-(E)]-1-[[[1-[3-[2-(7-chloro-2-quinolinyl)ethenyl]phenyl]-3-[2-(1-hydroxy-1-methylethyl)phenyl]propyl]thio]-methyl]cyclopropane acetic acid] | 11% | approximately 11% | approx. 73% | relatively slow | unexpectedly fast | high sensitivity |  |  |  |  | 
2 | CC(C)(O)c1ccccc1CC[C@@H](SCC1(CC(=O)[O-])CC1)c1cccc(/C=C\c2ccc3ccc(Cl)cc3n2)c1.[Na+] [(Z)-montelukast, sodium salt of 1-[[[(1R)-1-[3-[(1Z)-2-(7-chloro-2-quinolinyl)ethenyl]phenyl]-3-[2-(1-hydroxy-1-methylethyl)phenyl]propyl]thio]methyl]cyclopropane acetic acid] |  |  |  |  |  |  | below 0.1% | less than 0.1% | 11% | 5.6% | 2.7%
